How the values were obtained:
MTHFD1^KO cells = assay: growth of MTHFD1^KO cells in dialyzed serum media with compound supplementation; format: cell-based
Protocol: MTHFD1^KO cells in dialyzed FBS media were treated with a single nucleotide or folic acid metabolite for 72 hours. Cells were then stained with Hoechst, imaged, and counted using an Operetta (Perkin Elmer). For the AMPK activator studies, cells were stained with Hoechst, imaged, and counted using an Opera (Perkin Elmer). Similarly, MTHFD1^K56R cells in dialyzed FBS media were treated with adenosine for 72 hours. Cells were then stained with Hoechst, imaged, and counted using an Operetta (Perkin Elmer).
MTHFD1^KO cells (F5 clone) in dialyzed FBS media were treated with the CeMM compound library (89,228 chemically diverse compounds). Both cell number, using Hoechst staining, and CellTiter-Glo (Promega), an indicator of metabolically active cells, was both used as a readout, depending on the stage of the screen.
Briefly, the screening was divided into the three parts (i) primary screening, (ii) follow-up and (iii) validation. During the primary screen, MTHFD1^KO cells were treated with 10 μM of every compound and CellTiter-Glo (Promega) was used to assess their ability to increase cell growth after 48 hours. From this primary screening, 17 compounds were selected as hits and rescreened in the follow-up part, in which the MTHFD1^KO cells were treated in a six-point dose response for 72 hours to discard any false positives. Finally, in the validation part, MTHFD1^KO cells were treated with 10 compounds in an eight-point dose response curve and the cell numbers were counted by staining with Hoechst, imaging and counting nuclei using the Opera Phenix (Perkin Elmer) and Harmony software (Perkin Elmer).

NUDT14 = target: T1, NUDT14 (Homo sapiens, UniProt O95848); assay: AMP-Glo catalytic assay, NUDT14; format: biochemical; conditions: 2 nM NUDT14, ADPr substrate, 1 hour, mean±SD; read-out: NUDT14 IC50
T1 sequence (O95848 1-222): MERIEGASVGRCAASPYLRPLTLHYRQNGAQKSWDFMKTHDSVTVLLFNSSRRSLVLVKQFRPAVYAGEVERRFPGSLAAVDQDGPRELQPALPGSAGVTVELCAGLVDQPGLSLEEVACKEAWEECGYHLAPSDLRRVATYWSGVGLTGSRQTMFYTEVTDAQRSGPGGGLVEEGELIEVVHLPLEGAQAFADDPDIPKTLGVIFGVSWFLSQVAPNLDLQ
Protocol: To identify alternative X groups, a screening exercise was performed. […] Inhibition activities of the compounds were determined using AMP-Glo system (Promega). The compounds were diluted from 50 μM to 0 μM in a final reaction containing 20 mM Hepes, 100 mM NaCl, 0.5 mM TCEP, 1 mM MgCl2 and 0.1% BSA, pH 7.4. The reactions were performed in 1536 well plate in […] reaction volume with 2 nM of NUDT5 and NUDT14, and […] of ADPr as the substrate. The final DMSO concentration was 0.5% for all reactions. NUDT5 reactions were incubated for 20 minutes while NUDT14 reactions were carried out for 1 hour at room temperature. […] The reactions were further incubated with the 4 μl of Detection solution for 1 hour at room temperature. Luminescence signals were then measured in PHERAstar FSX plate reader. Experiments were done in triplicate sets and data were analysed by GraphPad Prism 9. Data are represented as the mean±SD of three biological experiments: […]

NUDT5 [1] = target: T2, NUDT5 (Homo sapiens, UniProt Q9UKK9); assay: NUDT5 degradation by Western blot in HEK293 cells; format: cell-based; parameters: endogenous in cells; host or cells: HEK293 (also CRBN knock-out HEK293 for A13)
Protocol: For Western blots, proteins were separated on polyacrylamide gels with SDS running buffer (50 mM Tris, 380 mM Glycine, 7 mM SDS) and transferred to PVDF membranes. All membranes were then blocked with blocking buffer (5% w/v milk powder, BioRad) in TBST (50 mM Tris (tris(hydroxymethylaminomethane), 150 mM NaCl, 0.05% (v/v) Tween 20, adjusted to pH 7.6) Proteins were probed with antibodies against phospho-AMPK (50081S, 1:2000, Cell Signaling Technologies), AMPK (5832S, 1:2000, Cell Signaling Technologies), PML (ab179466, 1:1000, abeam), PARP8 (NBP213733, 1:1000, Novus Biologicals), ATF2/7 (82870, 1:1000, Cell Signaling Technologies), alpha-Tubulin (ab7291, 1:1000, Abeam), phospho-UBTF (ab182583, 1:1000, abeam), UBTF (HPA006385, 1:1000, Sigma), RBM38 (AV40862, 1:1000, Sigma), or NUDT5 (ab129172, 1:1000, abeam), detected by HRP (horse-radish peroxidase) conjugated donkey anti-rabbit IgG antibody (Pierce) or donkey anti-mouse antibody IgG antibody (Pierce) and visualized with Clarity ECL Western Blotting substrate (BioRad), according to provided protocol.

NUDT5 [2] = target: T2, NUDT5; assay: CRBN knock-out experiment, NUDT5 degradation; format: cell-based; parameters: endogenous in cells; host or cells: HEK293 (also CRBN knock-out HEK293 for A13); conditions: CRBN knock-out HEK293 cells, 20 h

## NC(=O)c1ccc[n+]([C@@H]2O[C@H](COP(=O)([O-])OP(=O)(O)OC[C@H]3O[C@@H](n4cnc5c(N)ncnc54)[C@H](O)[C@@H]3O)[C@@H](O)[C@H]2O)c1 [NAD]
MTHFD1^KO cells
  rescue of growth in dialyzed serum: able to rescue the growth

## C=CC(=O)N1CCC=C(c2nn(C3CCN(C)CC3)c3ncnc(N)c23)C1 [Compound 5]
NUDT14
  IC50: 4270 ± 133 nM

## NC(=O)C1=CN([C@@H]2O[C@H](COP(=O)(O)OP(=O)(O)OC[C@H]3O[C@@H](n4cnc5c(N)ncnc54)[C@H](O)[C@@H]3O)[C@@H](O)[C@H]2O)C=CC1 [NADH]
MTHFD1^KO cells
  rescue of growth in dialyzed serum: able to rescue the growth

## Nc1ncnc2c1ncn2[C@@H]1O[C@H](COP(=O)(O)O)[C@@H](O)[C@H]1O [AMP]
MTHFD1^KO cells
  rescue of growth in dialyzed serum: able to rescue the growth

## Nc1ncnc2[nH]nc(-c3ccc(Oc4ccccc4)cc3)c12 [Compound 3]
NUDT14
  IC50: 548 ± 37 nM

## Cn1nc(-c2ccc(Oc3ccccc3)cc2)c2c(N)ncnc21 [Compound 2]
NUDT14
  IC50: 604 ± 116 nM

## Cc1cc2nc3c(=O)[nH]c(=O)nc-3n(C[C@H](O)[C@H](O)[C@H](O)COP(=O)(O)OP(=O)(O)OC[C@H]3O[C@@H](n4cnc5c(N)ncnc54)[C@H](O)[C@@H]3O)c2cc1C [FAD]
MTHFD1^KO cells
  rescue of growth in dialyzed serum: able to rescue the growth

## Cn1c(=O)c2c(nc(N3CCN(C(=O)CCOCCOCCOCCNc4cccc5c4C(=O)N(C4CCC(=O)NC4=O)C5=O)CC3)n2Cc2nnc(-c3ccc(Cl)c(Cl)c3)o2)n(C)c1=O (centres unmarked) [Compound 127, 7-((5-(3,4-dichlorophenyl)-1,3,4-oxadiazol-2-yl)methyl)-8-(4-(3-(2-(2-(2-((2-(2,6-dioxopiperidin-3-yl)-1,3-dioxoisoindolin-4-yl)amino)ethoxy)ethoxy)ethoxy)propanoyl)piperazin-1-yl)-1,3-dimethyl-3,7-dihydro-1H-purine-2,6-dione]
NUDT5 [1]
  NUDT5 degradation at 100 nM, 20 h (%): 76%
NUDT5 [2]
  dependence of degradation on E3 ligase: E3-ligase-dependant

## O=c1[nH]cnc2nc[nH]c12 [hypoxanthine]
MTHFD1^KO cells
  rescue of growth in dialyzed serum: able to rescue the growth

## Cn1c(=O)c2c(nc(N3CCN(C(=O)CCOCCOCCOCCOCCNc4cccc5c4C(=O)N(C4CCC(=O)NC4=O)C5=O)CC3)n2Cc2nnc(-c3ccc(Cl)c(Cl)c3)o2)n(C)c1=O (centres unmarked) [Compound 130, 7-((5-(3,4-dichlorophenyl)-1,3,4-oxadiazol-2-yl)methyl)-8-(4-(1-((2-(2,6-dioxopiperidin-3-yl)-1,3-dioxoisoindolin-4-yl)amino)-3,6,9,12-tetraoxapentadecan-15-oyl)piperazin-1-yl)-1,3-dimethyl-3,7-dihydro-1H-purine-2,6-dione]
NUDT5 [1]
  NUDT5 degradation at 100 nM, 20 h (%): 81%
NUDT5 [2]
  dependence of degradation on E3 ligase: E3-ligase-dependant

## Cn1c(=O)c2c(nc(N3CCN(CCC4CCN(c5ccc6c(c5)C(=O)N(C5CCC(=O)NC5=O)C6=O)CC4)CC3)n2Cc2nnc(-c3ccc(Cl)c(Cl)c3)o2)n(C)c1=O (centres unmarked) [Compound 102, 7-((5-(3,4-dichlorophenyl)-1,3,4-oxadiazol-2-yl)methyl)-8-(4-(2-(1-(2-(2,6-dioxopiperidin-3-yl)-1,3-dioxoisoindolin-5-yl)piperidin-4-yl)ethyl)piperazin-1-yl)-1,3-dimethyl-3,7-dihydro-1H-purine-2,6-dione]
NUDT5 [1]
  NUDT5 degradation at 100 nM, 20 h (%): 46%

## Cn1c(=O)c2c(nc(N3CCN(C(=O)CCOCCOCCNc4cccc5c4C(=O)N(C4CCC(=O)NC4=O)C5=O)CC3)n2Cc2nnc(-c3ccc(Cl)c(Cl)c3)o2)n(C)c1=O (centres unmarked) [Compound 068, 7-((5-(3,4-dichlorophenyl)-1,3,4-oxadiazol-2-yl)methyl)-8-(4-(3-(2-(2-((2-(2,6-dioxopiperidin-3-yl)-1,3-dioxoisoindolin-4-yl)amino)ethoxy)ethoxy)propanoyl)piperazin-1-yl)-1,3-dimethyl-3,7-dihydro-1H-purine-2,6-dione]
NUDT5 [1]
  NUDT5 degradation at 100 nM, 20 h (%): 52%
NUDT5 [1]; HEK293, NUDT5 degradation
  Dmax: 50%

## C[S+](CC[C@H](N)C(=O)[O-])C[C@H]1O[C@@H](n2cnc3c(N)ncnc32)[C@H](O)[C@@H]1O (some centres unmarked) [SAM]
MTHFD1^KO cells
  rescue of growth in dialyzed serum: able to rescue the growth

## CN1CCC(n2nc(-c3ccc(NC(=O)CCl)cc3)c3c(N)ncnc32)CC1 [Compound 8]
NUDT14
  IC50: 377 ± 35 nM
